Measurements reported in publication PMC10360169 (Frontiers in Immunology, 2023).
Read-outs that look alike come from different tables or passages of the source.

System: Acar3
Type: binding, great reed warbler Acrocephalus arundinaceus
[1] = Table S1, top 94 PSCPL-scoring peptides, SPA, 10µM peptide, 125I β2m, folding over night at 18°C, dissociation measured up to 24 hours at 37°C
[2] = Table S5, half-life estimated from dissociation in scintillation proximity assay, Acar3

Row | Sequence | Stability T½ of Acar3 in complex with the peptide [1] [min] | Stability T½ (h), peptide - Acar3 [2] [h] | Stability T½ (h), peptide - Acar3 [h] | Stability T½ of Acar3 in complex with the peptide [min]
1 | VIMWYNYLF [9-mer peptide] | 18 | 0.3 | – | –
2 | QQMFPGAPF [9-mer peptide] | 24 | 0.4 | – | –
3 | VQTAAAVVF [9-mer peptide] | – | 0.2 | – | –
4 | FMIVNNFPV [9-mer peptide] | 18 | 0.3 | – | –
5 | MMMSTAVAF [9-mer peptide] | 438 | 7.3 | – | –
6 | YLQQNTHTL [9-mer peptide] | 30 | 0.5 | – | –
7 | KQLESVMYL [9-mer peptide] | 78 | 1.3 | – | –
8 | ILMEHIHKL [9-mer peptide] | 12 | 0.2 | – | –
9 | YLLEMLWRL [9-mer peptide] | 24 | 0.4 | – | –
10 | AMAAGLSSL [9-mer peptide] | 18 | 0.3 | – | –
11 | QAYAAPQLF [9-mer peptide] | 90 | 1.5 | – | –
12 | SVYFAAFAF [9-mer peptide] | 96 | 1.6 | – | –
13 | LMDENTYAM [9-mer peptide] | 24 | 0.4 | – | –
14 | RATQPAAEF [9-mer peptide] | 96 | 1.6 | – | –
15 | SLAIDAYPL [9-mer peptide] | – | – | 2.1 | 126
16 | VVKQLPASF [9-mer peptide] | – | 0.1 | – | –
17 | WMMAMRYPI [9-mer peptide] | 186 | 3.1 | – | –
18 | KMNAKAATL [9-mer peptide] | 126 | 2.1 | – | –
19 | STEFIPNLF [9-mer peptide] | 18 | 0.3 | – | –
20 | AVMFFPFWF [9-mer peptide] | 36 | 0.6 | – | –
21 | RQIRMTSTI [9-mer peptide] | – | 0.1 | – | –

Row | Sequence | Stability T½ of Acar3 in complex with the peptide [1] [min] | Stability T½ (h), peptide - Acar3 [2] [h] | Stability T½ (h), peptide - Acar3 [h] | Stability T½ of Acar3 in complex with the peptide [min]
22 | HELSLFWPL [9-mer peptide] | 66 | 1.1 | – | –
23 | QMSWLPLCV [9-mer peptide] | 36 | 0.6 | – | –
24 | LQMLGENVL [9-mer peptide] | 156 | 2.6 | – | –
25 | LTMNLVSDI [9-mer peptide] | 270 | 4.5 | – | –
26 | YMKKRYEEF [9-mer peptide] | – | 0.2 | – | –
27 | SMMPEAMTI [9-mer peptide] | 54 | 0.9 | – | –
28 | FLQGAKWYL [9-mer peptide] | – | 0.1 | – | –
29 | ETMKPAAMV [9-mer peptide] | 162 | 2.7 | – | –
30 | MMWATAQAL [9-mer peptide] | 48 | 0.8 | – | –
31 | QWALLPYLF [9-mer peptide] | 594 | 9.9 | – | –
32 | LMMNGTSAM [9-mer peptide] | 48 | 0.8 | – | –
33 | YLMPYSVYI [9-mer peptide] | – | 0.1 | – | –
34 | AMPKTIYEL [9-mer peptide] | 228 | 3.8 | – | –
35 | GMNVTAPAL [9-mer peptide] | 18 | 0.3 | – | –
36 | KIMQVDRPM [9-mer peptide] | 156 | 2.6 | – | –
37 | YLYLRPYAL [9-mer peptide] | 144 | 2.4 | – | –
38 | GAMYALANF [9-mer peptide] | 36 | 0.6 | – | –
39 | RMAMIPRTL [9-mer peptide] | 30 | 0.5 | – | –
40 | KQMSQPYAV [9-mer peptide] | 240 | 4.0 | – | –
41 | FLDKGTYTL [9-mer peptide] | 18 | 0.3 | – | –
42 | FQANMFLTL [9-mer peptide] | 72 | 1.2 | – | –

Row | Sequence | Stability T½ of Acar3 in complex with the peptide [1] [min] | Stability T½ (h), peptide - Acar3 [2] [h] | Stability T½ (h), peptide - Acar3 [h] | Stability T½ of Acar3 in complex with the peptide [min]
43 | VMPLLVWLF [9-mer peptide] | 114 | 1.9 | – | –
44 | YMHGSIHEV [9-mer peptide] | 54 | 0.9 | – | –
45 | REWSGLNYL [9-mer peptide] | 114 | 1.9 | – | –
46 | AEMRETHWL [9-mer peptide] | 300 | 5.0 | – | –
47 | LPLPAQQPF [9-mer peptide] | 18 | 0.3 | – | –
48 | GRLVTVNPF [9-mer peptide] | 30 | 0.5 | – | –
49 | RMMATKDSF [9-mer peptide] | 24 | 0.4 | – | –
50 | VMMAKRPLI [9-mer peptide] | 30 | 0.5 | – | –
51 | FMFDYIPPV [9-mer peptide] | – | 0.2 | – | –
52 | FLLENAAYL [9-mer peptide] | 72 | 1.2 | – | –
53 | YMWLGARYL [9-mer peptide] | 24 | 0.4 | – | –
54 | AMMWRIAQL [9-mer peptide] | 18 | 0.3 | – | –
55 | LDMNVVKEL [9-mer peptide] | 36 | 0.6 | – | –
56 | KTMMQAHDL [9-mer peptide] | 594 | 9.9 | – | –
57 | MMMPMFNAF [9-mer peptide] | 432 | 7.2 | – | –
58 | KAMRPWQSF [9-mer peptide] | 24 | 0.4 | – | –
59 | MPMSMPIPM [9-mer peptide] | 192 | 3.2 | – | –
60 | KLMDVVYSI [9-mer peptide] | 24 | 0.4 | – | –
61 | IMDASSFTL [9-mer peptide] | 84 | 1.4 | – | –
